Measurements reported in ChEMBL document CHEMBL3994575, “Helixconstraints and amino acid substitution in GLP-1 increase cAMP and insulin secretion but not beta-arrestin 2 signaling” (Eur J Med Chem, 2017).
Positions of bridges follow the written chain, without caps; N, C: chain ends. Residues, ends and D or L forms follow the SMILES beside them.

Assays:
[1] = biological target: T1, Glucagon-like peptide 1 receptor (Rattus norvegicus, UniProt P32301); test: Agonist activity at GLP1R in rat INS-1 cells assessed as increase in glucose-stimulated insulin secretion after 1 hr by HTRF assay; format: cell-based
T1 sequence (P32301 whole entry): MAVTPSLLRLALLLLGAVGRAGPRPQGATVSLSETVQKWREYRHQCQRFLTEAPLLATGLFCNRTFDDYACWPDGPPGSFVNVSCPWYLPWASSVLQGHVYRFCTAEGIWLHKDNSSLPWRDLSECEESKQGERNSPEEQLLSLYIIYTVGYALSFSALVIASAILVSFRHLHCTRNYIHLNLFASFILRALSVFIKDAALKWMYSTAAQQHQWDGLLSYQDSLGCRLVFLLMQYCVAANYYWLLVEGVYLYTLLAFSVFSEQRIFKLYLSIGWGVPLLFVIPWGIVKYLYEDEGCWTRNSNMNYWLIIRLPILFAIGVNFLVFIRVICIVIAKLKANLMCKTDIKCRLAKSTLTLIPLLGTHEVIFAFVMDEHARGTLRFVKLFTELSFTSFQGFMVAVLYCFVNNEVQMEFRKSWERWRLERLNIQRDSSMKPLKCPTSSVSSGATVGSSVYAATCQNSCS

[2] = biological target: T2, Glucagon-like peptide 1 receptor (Homo sapiens, UniProt P43220); test: Agonist activity at human GLP1R expressed in CHOK1 cells assessed as induction of beta-galactosidase-tagged beta-arrestin2 recruitment incubated for 90 mins by PathHunter enzyme complementation assay; format: cell-based
T2 sequence (P43220 whole entry): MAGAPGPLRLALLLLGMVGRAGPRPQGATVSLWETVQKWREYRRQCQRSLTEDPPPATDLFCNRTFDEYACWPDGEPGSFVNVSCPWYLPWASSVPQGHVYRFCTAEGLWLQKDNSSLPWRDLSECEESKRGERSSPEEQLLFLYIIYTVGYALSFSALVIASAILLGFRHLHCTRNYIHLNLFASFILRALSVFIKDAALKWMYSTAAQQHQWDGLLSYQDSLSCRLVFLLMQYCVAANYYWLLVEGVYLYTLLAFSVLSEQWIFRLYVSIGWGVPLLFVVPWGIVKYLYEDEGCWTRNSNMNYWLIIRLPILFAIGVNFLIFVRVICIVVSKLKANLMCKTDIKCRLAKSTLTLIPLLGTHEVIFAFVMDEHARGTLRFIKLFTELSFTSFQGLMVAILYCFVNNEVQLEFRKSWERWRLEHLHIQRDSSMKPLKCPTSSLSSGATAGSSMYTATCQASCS

[3] = biological target: T2, Glucagon-like peptide 1 receptor; test: Agonist activity at human GLP1R expressed in CHO cells assessed as cAMP accumulation incubated for 30 mins by LANCE assay; format: functional, cell-based
[4] = biological target: T2, Glucagon-like peptide 1 receptor; test: Displacement of [125I]-GLP (7 to 36 residues) from human GLP1R expressed in CHO cell membranes incubated for 30 mins measured after 10 hrs by scintillation proximity assay

Row | EC50 [1] | EC50 [2] | EC50 [3] | Ki [4] | Structure (SMILES)
1 | 50 nM | – | – | – | CC[C@H](C)[C@H](NC(=O)[C@H](Cc1ccccc1)NC(=O)[C@H](CCC(=O)O)NC(=O)[C@H](CCCCN)NC(=O)[C@H](C)NC(=O)[C@H](C)NC(=O)[C@H](CCC(N)=O)NC(=O)CNC(=O)[C@H](CCC(=O)O)NC(=O)[C@H](CC(C)C)NC(=O)[C@H](Cc1ccc(O)cc1)NC(=O)[C@@H]1CC(=O)NCCCC[C@H](NC(=O)[C@@H](NC(=O)[C@H](Cc2ccccc2)NC(=O)[C@@H](NC(=O)CNC(=O)[C@H](CCC(=O)O)NC(=O)[C@H](C)NC(=O)[C@@H](N)Cc2cnc[nH]2)[C@@H](C)O)[C@@H](C)O)C(=O)N[C@@H](CC(=O)O)C(=O)N[C@@H](C(C)C)C(=O)N[C@@H](CO)C(=O)N1)C(=O)N[C@@H](C)C(=O)N[C@@H](Cc1c[nH]c2ccccc12)C(=O)N[C@@H](CC(C)C)C(=O)N[C@H](C(=O)N[C@@H](CCCCN)C(=O)NCC(=O)N[C@@H](CCCNC(=N)N)C(=O)NCC(N)=O)C(C)C (H-HAEGTFTKDVSDYLEGQAAKEFIAWLVKGRG-NH2; lactam 8-12)
2 | 16 nM | – | – | – | CC[C@H](C)[C@H](NC(=O)[C@H](Cc1ccccc1)NC(=O)[C@H](CCC(=O)O)NC(=O)[C@H](CCCCN)NC(=O)[C@H](C)NC(=O)[C@H](C)NC(=O)[C@H](CCC(N)=O)NC(=O)CNC(=O)[C@H](CCC(=O)O)NC(=O)[C@H](CC(C)C)NC(=O)[C@H](Cc1ccc(O)cc1)NC(=O)[C@H](CO)NC(=O)[C@H](Cc1ccc(O)cc1)NC(=O)[C@@H](NC(=O)[C@H](CC(=O)O)NC(=O)[C@H](CO)NC(=O)[C@@H](NC(=O)[C@H](Cc1ccccc1)NC(=O)[C@@H](NC(=O)CNC(=O)[C@H](CCC(=O)O)NC(=O)[C@H](C)NC(=O)[C@@H](N)Cc1cnc[nH]1)[C@@H](C)O)[C@@H](C)O)C(C)C)C(=O)N[C@@H](C)C(=O)N[C@@H](Cc1c[nH]c2ccccc12)C(=O)N[C@@H](CC(C)C)C(=O)N[C@H](C(=O)N[C@@H](CCCCN)C(=O)NCC(=O)N[C@@H](CCCNC(=N)N)C(=O)NCC(N)=O)C(C)C
3 | – | 8.8 nM | 0.009 nM | 0.82 nM | CC[C@H](C)[C@H](NC(=O)[C@H](Cc1ccccc1)NC(=O)[C@H](CCC(=O)O)NC(=O)[C@H](CCCCN)NC(=O)[C@H](C)NC(=O)[C@H](C)NC(=O)[C@H](CCC(N)=O)NC(=O)[C@@H]1CCC(=O)NCCCC[C@H](NC(=O)[C@H](CO)NC(=O)[C@H](Cc2ccc(O)cc2)NC(=O)[C@H](CC(=O)O)NC(=O)[C@H](CO)NC(=O)[C@@H](NC(=O)[C@H](Cc2ccccc2)NC(=O)[C@@H](NC(=O)CNC(=O)[C@H](CCC(=O)O)NC(=O)[C@H](C)NC(=O)[C@@H](N)Cc2cnc[nH]2)[C@@H](C)O)[C@@H](C)O)C(=O)N[C@@H](Cc2ccc(O)cc2)C(=O)N[C@@H](CC(C)C)C(=O)N[C@@H](CCC(=O)O)C(=O)N1)C(=O)N[C@H]1CCCCNC(=O)C[C@@H](C(=O)NCC(=O)N[C@@H](CCCNC(=N)N)C(=O)NCC(N)=O)NC(=O)[C@H](C(C)C)NC(=O)[C@H](CC(C)C)NC(=O)[C@H](Cc2c[nH]c3ccccc23)NC1=O (H-HAEGTFTSDYSKYLEEQAAKEFIKWLVDGRG-NH2; lactam 12-16, 24-28)
4 | – | 3.4 nM | 0.023 nM | 0.49 nM | CC[C@H](C)[C@H](NC(=O)[C@H](Cc1ccccc1)NC(=O)[C@H](CCC(=O)O)NC(=O)[C@H](CCCCN)NC(=O)[C@H](C)NC(=O)[C@H](C)NC(=O)[C@H](CCC(N)=O)NC(=O)CNC(=O)[C@H](CCC(=O)O)NC(=O)[C@H](CC(C)C)NC(=O)[C@H](Cc1ccc(O)cc1)NC(=O)[C@H](CO)NC(=O)[C@H](CO)NC(=O)[C@H](Cc1ccc(O)cc1)NC(=O)[C@H](CC(=O)O)NC(=O)[C@H](CO)NC(=O)[C@@H](NC(=O)[C@H](Cc1ccccc1)NC(=O)[C@@H](NC(=O)CNC(=O)[C@H](CCC(=O)O)NC(=O)[C@H](C)NC(=O)[C@@H](N)Cc1cnc[nH]1)[C@@H](C)O)[C@@H](C)O)C(=O)N[C@H]1CCCCNC(=O)C[C@@H](C(=O)NCC(=O)N[C@@H](CCCNC(=N)N)C(=O)NCC(N)=O)NC(=O)[C@H](C(C)C)NC(=O)[C@H](CC(C)C)NC(=O)[C@H](Cc2c[nH]c3ccccc23)NC1=O (H-HAEGTFTSDYSSYLEGQAAKEFIKWLVDGRG-NH2; lactam 24-28)
